# Measurements: PMC4503722, “Novel Phenotypic Outcomes Identified for a Public Collection of Approved Drugs from a Publicly Accessible Panel of Assays” (PLoS ONE, 2015)
# Like-named read-outs stand apart in the source and are kept apart here.
# Tests used:
# DLD-1 = assay: cells; format: cell-based; conditions: for IC50: read-out: Basal_Viability ATP DLD-1 summarized IC50
# SW480 = assay: cells; format: cell-based; conditions: for IC50: read-out: Basal_Viability ATP SW480 summarized IC50
# HCT116 = assay: cells; format: cell-based; conditions: for IC50: read-out: Basal_Viability ATP HCT116 summarized IC50
# Colo320 = assay: cells; format: cell-based; conditions: for IC50: read-out: Basal_Viability ATP Colo 320 summarized IC50
# HT-29 = assay: cells; format: cell-based; conditions: for IC50: read-out: Basal_Viability ATP HT-29 summarized IC50
# RKO = assay: cells; format: cell-based; conditions: for IC50: read-out: Basal_Viability ATP RKO summarized IC50
# SNU-C1 = assay: cells; format: cell-based; conditions: for IC50: read-out: Basal_Viability ATP SNU-C1 summarized IC50
# [1] = tested on: endothelial tube formation in co-cultures of ECFCs and ADSCs treated with VEGF; assay: cells; format: cell-based, human
# HeLa cells = assay: cells; format: cell-based;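 as to Hela CellCycMod PI 4N summarized IC50: value tracks stimulation of 4N DNA content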
# [2] = tested on: ECFC/ADSC co-culture cell nuclei number
# [3] = tested on: HCT116 cells treated with a GSK3β inhibitor; assay: cells; format: cell-based
structure (smiles),measurement,setting,value
NC(=O)N/N=C/c1ccc([N+](=O)[O-])o1 [NCGC00090686-11],IC50,"DLD-1; assay number 23, basal",> 20 µM
same,IC50,"SW480; assay number 24, basal",> 20 µM
same,IC50,"HCT116; assay number 25, basal",> 20 µM
same,IC50,"Colo320; assay number 27, basal",> 20 µM
same,IC50,"HT-29; assay number 28, basal",> 20 µM
same,IC50,"RKO; assay number 29, basal",> 20 µM
same,IC50,"SNU-C1; assay number 30, basal",> 20 µM
Oc1c(Cl)cc(Cl)c(Cl)c1Cc1c(O)c(Cl)cc(Cl)c1Cl [NCGC00091195-08],IC50,DLD-1,0.0157 µM
same,IC50,SW480,0.003 µM
same,IC50,HCT116,0.0312 µM
same,IC50,Colo320,0.0572 µM
same,IC50,HT-29,0.46 µM
same,IC50,RKO,0.108 µM
same,IC50,SNU-C1,0.032 µM
CCCCCCOc1ccccc1C(N)=O [NCGC00095049-04],"IC50/EC50, Basal_Viability ATP DLD-1 (assay number 23)",DLD-1; basal,8.6657 µM
same,"IC50/EC50, Basal_Viability ATP SW480 (assay number 24)",SW480; basal,> 20 µM
same,"IC50/EC50, Basal_Viability ATP HCT116 (assay number 25)",HCT116; basal,> 6.6667 µM
same,"IC50/EC50, Basal_Viability ATP Colo 320 (assay number 27)",Colo320; basal,> 20 µM
same,"IC50/EC50, Basal_Viability ATP HT-29 (assay number 28)",HT-29; basal,> 20 µM
same,"IC50/EC50, Basal_Viability ATP RKO (assay number 29)",RKO; basal,> 6.6667 µM
same,"IC50/EC50, Basal_Viability ATP SNU-C1 (assay number 30)",SNU-C1; basal,9.3567 µM
CN(CCOc1ccc(CC2SC(=O)NC2=O)cc1)c1ccccn1 (stereo not shown) [NCGC00095124-08],Basal_Viability ATP DLD-1 IC50/EC50,"DLD-1; assay number 23, basal",> 20 µM
same,Basal_Viability ATP SW480 IC50/EC50,"SW480; assay number 24, basal",> 20 µM
same,Basal_Viability ATP HCT116 IC50/EC50,"HCT116; assay number 25, basal",> 20 µM
same,Basal_Viability ATP Colo 320 IC50/EC50,"Colo320; assay number 27, basal",> 20 µM
same,Basal_Viability ATP HT-29 IC50/EC50,"HT-29; assay number 28, basal",> 20 µM
same,Basal_Viability ATP RKO IC50/EC50,"RKO; assay number 29, basal",> 20 µM
same,Basal_Viability ATP SNU-C1 IC50/EC50,"SNU-C1; assay number 30, basal",8.6851 µM
Cc1onc(-c2ccccc2)c1-c1ccc(S(N)(=O)=O)cc1 [NCGC00095129-06],Basal_Viability ATP DLD-1 IC50/EC50,DLD-1,> 20 µM
same,Basal_Viability ATP SW480 IC50/EC50,SW480,> 20 µM
same,Basal_Viability ATP HCT116 IC50/EC50,HCT116,> 20 µM
same,Basal_Viability ATP Colo 320 IC50/EC50,Colo320,> 20 µM
same,Basal_Viability ATP HT-29 IC50/EC50,HT-29,> 20 µM
same,Basal_Viability ATP RKO IC50/EC50,RKO,> 20 µM
same,Basal_Viability ATP SNU-C1 IC50/EC50,SNU-C1,> 20 µM
CNS(=O)(=O)Cc1ccc2[nH]cc(CCN(C)C)c2c1 [NCGC00095838-04],Basal_Viability ATP DLD-1 IC50/EC50,"DLD-1; assay number 23, basal",> 20 µM
same,Basal_Viability ATP SW480 IC50/EC50,"SW480; assay number 24, basal",> 6.6667 µM
same,Basal_Viability ATP HCT116 IC50/EC50,"HCT116; assay number 25, basal",> 20 µM
same,Basal_Viability ATP Colo 320 IC50/EC50,"Colo320; assay number 27, basal",> 20 µM
same,Basal_Viability ATP HT-29 IC50/EC50,"HT-29; assay number 28, basal",> 20 µM
same,Basal_Viability ATP RKO IC50/EC50,"RKO; assay number 29, basal",> 20 µM
same,Basal_Viability ATP SNU-C1 IC50/EC50,"SNU-C1; assay number 30, basal",> 20 µM
CCN(CCO)CCCC(C)Nc1ccnc2cc(Cl)ccc12.O=S(=O)(O)O (stereo not shown) [NCGC00159483-04],Basal_Viability ATP DLD-1 IC50/EC50,"DLD-1; assay number 23, basal",> 20 µM
same,Basal_Viability ATP SW480 IC50/EC50,"SW480; assay number 24, basal",> 20 µM
same,Basal_Viability ATP HCT116 IC50/EC50,"HCT116; assay number 25, basal",> 20 µM
same,Basal_Viability ATP Colo 320 IC50/EC50,"Colo320; assay number 27, basal",> 20 µM
same,Basal_Viability ATP HT-29 IC50/EC50,"HT-29; assay number 28, basal",> 20 µM
same,Basal_Viability ATP RKO IC50/EC50,"RKO; assay number 29, basal",> 20 µM
same,Basal_Viability ATP SNU-C1 IC50/EC50,"SNU-C1; assay number 30, basal",> 20 µM
CC=CC1=C(C(=O)O)N2C(=O)[C@@H](NC(=O)[C@H](N)c3ccc(O)cc3)[C@H]2SC1 [NCGC00159513-03],Basal_Viability ATP DLD-1 IC50/EC50,DLD-1; assay number 23,> 20 µM
same,Basal_Viability ATP SW480 IC50/EC50,SW480; assay number 24,> 20 µM
same,Basal_Viability ATP HCT116 IC50/EC50,"HCT116; assay number 25, basal",> 20 µM
same,Basal_Viability ATP Colo 320 IC50/EC50,Colo320; assay number 27,> 20 µM
same,Basal_Viability ATP HT-29 IC50/EC50,HT-29; assay number 28,> 20 µM
same,Basal_Viability ATP RKO IC50/EC50,RKO; assay number 29,> 20 µM
same,Basal_Viability ATP SNU-C1 IC50/EC50,SNU-C1; assay number 30,> 20 µM
Cc1nc2ccccc2n1Cc1ccc(Cl)cc1 [NCGC00160416-02],VEGF_ADSC\ECFC Angio CD31 TubeArea IC50/EC50,[1],7.3825 µM
same,Hela CellCycMod PI 2N IC50/EC50,"HeLa cells; assay number 14, 2N",> 10 µM
same,Hela CellCycMod PI 4N IC50/EC50,"HeLa cells; assay number 16, 4N",> 10 µM
same,Hela CellCycMod PI MI IC50/EC50,"HeLa cells; assay number 17, MI",> 10 µM
same,Hela CellCycMod PI Cell Number IC50/EC50,"HeLa cells; assay number 18, cell number",0.03183 µM
same,Basal_Viability ATP DLD-1 IC50/EC50,"DLD-1; assay number 23, basal",> 20 µM
same,Basal_Viability ATP SW480 IC50/EC50,"SW480; assay number 24, basal",5.3305 µM
same,Basal_Viability ATP HCT116 IC50/EC50,"HCT116; assay number 25, basal",1.219 µM
same,Basal_Viability ATP Colo 320 IC50/EC50,"Colo320; assay number 27, basal",15.1764 µM
same,Basal_Viability ATP HT-29 IC50/EC50,"HT-29; assay number 28, basal",> 20 µM
same,Basal_Viability ATP SNU-C1 IC50/EC50,"SNU-C1; assay number 30, basal",> 20 µM
same,VEGF_ADSC\ECFC Angio Hoechst NucArea IC50/EC50,[2],> 10 µM
CCCCCCCCCCCC[N+](C)(C)Cc1ccccc1 [NCGC00164245-03],IC50,[1]; read-out: VEGF_ADSC\ECFC Angio CD31 TubeArea summarized IC50,> 10 µM
same,IC50,"HeLa cells; assay number 14, 2N, read-out: Hela CellCycMod PI 2N summarized IC50",> 10 µM
same,IC50,"HeLa cells; assay number 15, S phase, read-out: Hela CellCycMod PI S Phase summarized IC50",> 10 µM
same,IC50,"HeLa cells; assay number 16, 4N, read-out: Hela CellCycMod PI 4N summarized IC50",> 10 µM
same,IC50,"HeLa cells; assay number 17, MI, read-out: Hela CellCycMod PI MI summarized IC50",> 10 µM
same,IC50,"HeLa cells; assay number 18, cell number, read-out: Hela CellCycMod PI Cell Number summarized IC50",> 10 µM
same,IC50,"DLD-1; assay number 23, basal",0.738 µM
same,IC50,"[3]; assay number 26, GSK3b inhibitor pretreated, read-out: GSK3b inh pretreated_Viability ATP HCT116 summarized IC50",> 20 µM
same,IC50,"HT-29; assay number 28, basal",0.465 µM
same,IC50,"SNU-C1; assay number 30, basal",0.02 µM
same,IC50,[2]; read-out: VEGF_ADSC\ECFC Angio Hoechst NucArea summarized IC50,6.93 µM
Cc1cc(-c2ccc(N=Nc3c(S(=O)(=O)O)cc4cc(S(=O)(=O)O)cc(N)c4c3O)c(C)c2)ccc1N=Nc1c(S(=O)(=O)O)cc2cc(S(=O)(=O)O)cc(N)c2c1O [NCGC00344528-01],"IC50/EC50, VEGF_ADSC\ECFC Angio CD31 TubeArea (assay number 2)",[1],> 10 µM
same,"IC50/EC50, Basal_Viability ATP DLD-1 (assay number 23)",DLD-1; basal,> 20 µM
same,"IC50/EC50, Basal_Viability ATP SW480 (assay number 24)",SW480; basal,> 20 µM
same,"IC50/EC50, Basal_Viability ATP HCT116 (assay number 25)",HCT116; basal,> 20 µM
same,"IC50/EC50, GSK3b inh pretreated_Viability ATP HCT116 (assay number 26)",[3]; GSK3b inh pretreated,> 20 µM
same,"IC50/EC50, Basal_Viability ATP Colo 320 (assay number 27)",Colo320; basal,> 20 µM
same,"IC50/EC50, Basal_Viability ATP HT-29 (assay number 28)",HT-29; basal,> 20 µM
same,"IC50/EC50, Basal_Viability ATP RKO (assay number 29)",RKO; basal,> 20 µM
same,"IC50/EC50, VEGF_ADSC\ECFC Angio Hoechst NucArea (assay number 3)",[2],> 10 µM
